These results are taken from patent US20250332154A1, “USE OF NAPHTHOQUINE PHOSPHATE IN PREPARATION OF A MEDICAMENT FOR TREATING AUTOIMMUNE DISEASES” (SHANGHAI PHARMACEUTICALS INDUSTRY CO., LTD, priority 2022, published 2025).

Where a name gives a salt, the structure may show the parent alone. A value given as a limit tells only on which side of the number the result lay.

One data set has as its system TNF-α. Put plainly: TNF-α production by LPS-induced RAW264.7 cells (ELISA). The class given is cell-based, mouse. To be noted: for production of TNF-α: LPS-induced RAW264.7, in words; for IC50: Mus musculus, LPS 10 μg/ml, RAW264.7. How it is done:
(§1) RAW264.7 cells were inoculated into a 96-well plate at 1×10^5/well and allowed to adhere to the wall for 6 hours in a 37° C., 5% CO2 incubator. […] After the cells adhered to the wall, the stimulant LPS (final concentration: 10 μg/ml) and the gradient-diluted compounds were added. A corresponding stimulation control and a cell control (without stimulation) were set up. After the end of the culture, the cell culture supernatants were collected, and the levels of TNF-α, IL-1β and IL-6 were measured by ELISA.
For orientation: An ELISA detects its analyte on a solid surface through an enzyme-linked reagent.

The next data set deals with IL-6. Kind of data set: IL-6 production by LPS-induced RAW264.7 cells (ELISA). It is filed as cell-based, mouse. Conditions: for production of IL-6: LPS-induced RAW264.7, in words; for IC50: Mus musculus, LPS 10 μg/ml, RAW264.7. How it is done:
as §1

Data set [1] is described as follows: Non-specific cytotoxicity assay (MTT), purified mouse B cells. The class given is cell-based. Conditions: BALB/c. How it is done: (§2) BALB/c mice were sacrificed by cervical dislocation, and spleens were aseptically excised to prepare spleen lymphocytes. The cells were adjusted to 1×10^8 cells/ml, blocked with 2.4G2 (final concentration: 10 μg/ml) for 20 min, cultured with PE-CD19 (final concentration: 5 μg/ml) for 20 min, washed with MACS buffer, centrifuged at 4° C., 300G for 10 min, 100 μl anti-PE beads were added per 1×10^8 cells, incubated with 900 μl MACS buffer for 15 min, washed with MACS buffer, centrifuged at 4° C., 300G for 10 min. The supernatant was discarded. 500 μl MACS buffer was added per 1×10^8 cells to resuspend the cells. MACS column was used for separation. Magnetically labeled cells were retained on the column. The MACS column was removed from the magnetic field and then eluted.
Hydroxychloroquine sulfate was diluted with a 2-fold gradient into 3 concentrations starting from 8 μM: 8, 4 and 2 μM. Naphthoquine phosphate was diluted with a 2-fold gradient into 3 concentrations starting from 0.5 μM: 0.5, 0.25, 0.125 μM. Purified mouse B cells were inoculated into a 96-well plate at 1×10^6/well, and gradient diluted compounds were added. A corresponding blank control and a cell control were set up. The cells were cultured in a 37° C., 5% CO2 incubator for 48 hours. […] The absorbance value was measured at 570 nm with a microplate reader (Spectra Max 190, Molecular Devices).

A further data set relates to purified mouse B cells. Kind of data set: B cell proliferation assay, TLRs-L-stimulated purified mouse B cells (3H-TdR). It is filed as cell-based. To be noted: for IC50: Mus musculus, B-cell, 48 h, purified B cells, stimulant TLR4-L 10 μg/ml; for proliferation of purified mouse splenic B cells and production of inflammatory cytokines and antibodies induced by specific TLR signals: in words. How it is done:
as §2
Hydroxychloroquine sulfate was diluted 2-fold into 3 concentrations starting from 8 μM: 8, 4 and 2 μM. Naphthoquine phosphate was diluted 2-fold into 3 concentrations starting from 0.5: 0.5, 0.25 and 0.125 μM. A suspension of purified mouse B cells was inoculated into a 96-well plate at 4×10^5/well, and the stimulant TLR4-L (final concentration: 10 μg/ml), TLR7-L (final concentration: 5 μg/ml) or TLR9-L (final concentration: 1 μM) and the gradient diluted compounds were added. A corresponding stimulation control and a cell control (without stimulation) were set up. The cells were cultured in 37° C., 5% CO2 incubator for 48 hours. Eight hours before the end of the culture, ^3H-TdR was added, and the culture was continued until the end of the experiment. The cells were collected onto glass fiber membranes using a cell collector. 5 ml scintillation fluid was added, and the values of radioactive counts per minute were read on a Beta counter (2450 Microplate Counter, PerkinElmer).

For another data set, the system named is IgG. Kind of data set: IgG secretion by TLRs-L-stimulated purified mouse B cells (ELISA). It is filed as cell-based. To be noted: B-cell, 120 h, stimulant TLR4-L 10 μg/ml. How it is done: as §2
A suspension of purified mouse B cells was inoculated into a 96-well plate at 4×10^5/well. Hydroxychloroquine sulfate was diluted with a 2-fold gradient into 3 concentrations, starting from 8 μM: 8, 4 and 2 μM. Naphthoquine phosphate was diluted with a 2-fold gradient into 3 concentrations starting from 0.5 μM.: 0.5, 0.25 and 0.125 μM. […] After the end of the culture, the cell culture supernatants were collected, and the levels of IgG and IgM were measured by ELISA.

Data set [2] deals with bovine type II collagen-induced arthritis in mice. Kind of data set: Bone morphological analysis by Micro-CT in arthritic mice. The class given is in vivo, mouse. Conditions: intragastric, FIG. 5. How it is done: Normal group, model group, positive medicament (1 mg/kg dexamethasone) group, naphthoquine phosphate (25, 50, 100 mg/kg) groups, hydroxychloroquine sulfate (100 mg/kg) group.
10 mg of Type II Collagen (CII) was swollen in 2.5 ml of 0.1 mol/L glacial acetic acid to prepare a 4 mg/ml CII solution. This solution was fully emulsified with an equal volume of CFA, and injected subcutaneously (50 μl) at the base of the tail of mice. After 21 days, 4 mg/ml CII solution was fully emulsified with an equal volume of IFA. This mixture was injected subcutaneously (50 μL) at the base of the tail of mice to boost the immune response.
Three-dimensional reconstruction was performed by the micro-CT technology, and bone morphology analysis was performed by professional analysis software.

Another data set deals with anti-nuclear antibodies. Put plainly: Anti-nuclear antibodies in serum of MRL/lpr mice (ANA kit). The class given is in vivo, mouse. To be noted: intragastric 25, 50 mg/kg, FIG. 8. How it is done:
Normal group, model group, positive medicament (1 mg/kg prednisone) group, naphthoquine phosphate (25, 50 mg/kg) group, hydroxychloroquine sulfate (100 mg/kg) group.
At the end of the experiment, eyeballs were removed to collect blood. ELISA method was used to detect the levels of anti-dsDNA antibodies in serum of experimental mice, and the anti-nuclear antibody kit was used to detect the levels of anti-nuclear antibodies. […] (Note: * P value<0.05, ** P value<0.01, *** P value<0.001, compared with model group.)

The term IC50 denotes the concentration that gives 50% inhibition. A higher IC50 goes with weaker potency. As a reminder, the CC50 is the concentration at which the toxic effect on the cells reaches its halfway point. Consider `CC(C)(C)NCc1cc(Nc2ccnc3cc(Cl)ccc23)c2c(c1O)CCCC2.O=P(O)(O)O.O=P(O)(O)O` [Naphthoquine Phosphate, Naphthoquine phosphate], for which, in the data set on TNF-α, the “production of TNF-α” value is recorded as “no significant effect” and the IC50 was over 10 µM. Moreover, in the data set on IL-6, the “production of IL-6” value is given as “no significant effect” and the IC50 was over 10 µM. The compound also returned a 50% cytotoxic concentration (CC50) at 48 h in data set [1] of 1.98 µM. Besides, in the data set on purified mouse B cells, the IC50 amounted to 0.19 µM; the “proliferation of purified mouse splenic B cells and production of inflammatory cytokines and antibodies induced by specific TLR signals” value is recorded as “inhibited”. Moreover, the midpoint of inhibition in the data set on IgG, the IC50, lay at 410 nM. The “bone damage in model mice (Micro-CT)” value in data set [2] is recorded as “inhibited”. The “levels of anti-nuclear antibodies in serum” value in the data set with anti-nuclear antibodies is “significantly reduced”.

`CCN(CCO)CCCC(C)Nc1ccnc2cc(Cl)ccc12` (stereo not drawn) [Hydroxychloroquine Sulfate, hydroxychloroquine sulfate]: in the data set on TNF-α, the “production of TNF-α” value is given as “no significant effect” and the midpoint of inhibition, the IC50, lay at 46.3 µM. In addition, in the data set with IL-6, the “production of IL-6” value is given as “no significant effect” and the IC50 came out at 16.5 µM. In data set [1], this compound gave a CC50 at 48 h of 19.7 µM. In the data set on purified mouse B cells, half-maximal inhibition (IC50) was put at 9.95 µM; the “proliferation of purified mouse splenic B cells and production of inflammatory cytokines and antibodies induced by specific TLR signals” value is listed as “inhibited”. The IC50 in the data set with IgG is over 8000 nM.
